Source: the supplement of paper PMC10627819

Experiments:
Test in all cases: fitness (endpoint OD595 vs no drug) (fraction); higher = more growth
S. aureus Newman = test system: S. aureus Newman
In short: (§1)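 Background-subtracted growth curves were the basis for fitness, taken as the optical density at entry into stationary phase over the robust mean of no-drug control wells. A cap of 1 was applied. The curves came from OD595 readings every 30 min for 14 h at 37 °C, in 384-well plates seeded at OD595 0.01 with 30 µl, or 55 µl for S. pneumoniae.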

B. subtilis 168 = test system: B. subtilis 168
In short: as §1

S. aureus DSM 20231 = test system: S. aureus DSM 20231
In short: as §1

S. pneumoniae D39V = test system: S. pneumoniae D39V
In short: as §1

N[C@@H]1CONC1=O [Cycloserine D] + CN[C@@H]1[C@H](O[C@H]2[C@H](O[C@H]3[C@H](O)[C@@H](O)[C@H](N=C(N)N)[C@@H](O)[C@@H]3N=C(N)N)O[C@@H](C)[C@]2(O)C=O)O[C@@H](CO)[C@H](O)[C@H]1O [Streptomycin]
fitness
Settings	first compound 0.125 µg/mL	first compound 0.25 µg/mL	first compound 0.375 µg/mL	first compound 0.5 µg/mL	first compound 0.75 µg/mL	first compound 1.5 µg/mL
B. subtilis 168, partner 2 µg/mL	0.931	0.937	–	0.982	–	–
B. subtilis 168, partner 8 µg/mL	0.0826	0.0554	–	0.074	–	–
S. aureus Newman, partner 1 µg/mL	–	–	0.984	–	0.985	0.978
S. aureus Newman, partner 2 µg/mL	–	–	0.976	–	0.93	0.941

O=C(N[C@H](CO)[C@H](O)c1ccc([N+](=O)[O-])cc1)C(Cl)Cl [Chloramphenicol] + CO/N=C(\C(=O)N[C@@H]1C(=O)N2C(C(=O)[O-])=C(C[N+]3(C)CCCC3)CS[C@H]12)c1csc(N)n1 [Cefepime]
fitness
Settings	partner 0.125 µg/mL	partner 0.25 µg/mL	partner 0.5 µg/mL
S. aureus DSM 20231, first compound 0.75 µg/mL	0.749	0.83	0.811
S. aureus DSM 20231, first compound 1.5 µg/mL	0.661	0.699	0.645
S. aureus DSM 20231, first compound 3 µg/mL	0.19	0.22	0.233
S. aureus Newman, first compound 0.75 µg/mL	0.756	0.685	0.611
S. aureus Newman, first compound 3 µg/mL	–	0.275	0.234

CCC[C@@H]1C[C@@H](C(=O)N[C@@H]([C@H]2O[C@H](SC)[C@H](O)[C@@H](O)[C@H]2O)[C@@H](C)O)N(C)C1 [Lincomycin] + CO[C@@]12[C@H](COC(N)=O)C3=C(C(=O)C(C)=C(N)C3=O)N1C[C@@H]1N[C@@H]12 [Mitomycin C]
Settings	fitness
S. aureus DSM 20231, first compound 0.1 µg/mL, partner 0.0156 µg/mL	0.645
S. aureus DSM 20231, first compound 0.1 µg/mL, partner 0.0312 µg/mL	0.651
S. aureus DSM 20231, first compound 0.1 µg/mL, partner 0.0625 µg/mL	0.502
S. aureus DSM 20231, first compound 0.2 µg/mL, partner 0.0156 µg/mL	0.613
S. aureus DSM 20231, first compound 0.2 µg/mL, partner 0.0312 µg/mL	0.567
S. aureus DSM 20231, first compound 0.2 µg/mL, partner 0.0625 µg/mL	0.383
S. aureus DSM 20231, first compound 0.4 µg/mL, partner 0.0156 µg/mL	0.217
S. aureus DSM 20231, first compound 0.4 µg/mL, partner 0.0312 µg/mL	0.199
S. aureus DSM 20231, first compound 0.4 µg/mL, partner 0.0625 µg/mL	0.108
S. pneumoniae D39V, first compound 0.2 µg/mL, partner 0.001075 µg/mL	0.679
S. pneumoniae D39V, first compound 0.2 µg/mL, partner 0.00215 µg/mL	0.69
S. pneumoniae D39V, first compound 0.2 µg/mL, partner 0.0043 µg/mL	0.603
S. pneumoniae D39V, first compound 0.215 µg/mL, partner 0.002 µg/mL	0.709
S. pneumoniae D39V, first compound 0.215 µg/mL, partner 0.004 µg/mL	0.73
S. pneumoniae D39V, first compound 0.215 µg/mL, partner 0.008 µg/mL	0.657
S. pneumoniae D39V, first compound 0.4 µg/mL, partner 0.001075 µg/mL	0.605
S. pneumoniae D39V, first compound 0.4 µg/mL, partner 0.00215 µg/mL	0.609
S. pneumoniae D39V, first compound 0.4 µg/mL, partner 0.0043 µg/mL	0.497
S. pneumoniae D39V, first compound 0.43 µg/mL, partner 0.002 µg/mL	0.615
S. pneumoniae D39V, first compound 0.43 µg/mL, partner 0.004 µg/mL	0.614
S. pneumoniae D39V, first compound 0.43 µg/mL, partner 0.008 µg/mL	0.514
S. pneumoniae D39V, first compound 0.8 µg/mL, partner 0.001075 µg/mL	0.221
S. pneumoniae D39V, first compound 0.8 µg/mL, partner 0.00215 µg/mL	0.218
S. pneumoniae D39V, first compound 0.8 µg/mL, partner 0.0043 µg/mL	0.131
S. pneumoniae D39V, first compound 0.86 µg/mL, partner 0.002 µg/mL	0.246
S. pneumoniae D39V, first compound 0.86 µg/mL, partner 0.004 µg/mL	0.258
S. pneumoniae D39V, first compound 0.86 µg/mL, partner 0.008 µg/mL	0.266

N[C@@H]1CONC1=O [Cycloserine D] + CCCCCCCCCC(=O)N[C@@H]1[C@H]([C@@H]([C@H](O[C@H]1OC2=C3C=C4C=C2OC5=C(C=C(C=C5)[C@H]([C@H]6C(=O)N[C@@H](C7=C(C(=CC(=C7)O)OC8[C@H]([C@H]([C@@H]([C@H](O8)CO)O)O)O)C9=C(C=CC(=C9)[C@H](C(=O)N6)NC(=O)[C@@H]4NC(=O)[C@@H]1C2=CC(=CC(=C2)OC2=C(C=CC(=C2)[C@H](C(=O)N[C@H](CC2=CC(=C(O3)C=C2)Cl)C(=O)N1)N)O)O)O)C(=O)O)O[C@H]1[C@@H]([C@H]([C@@H]([C@H](O1)CO)O)O)NC(=O)C)Cl)CO)O)O [Teicoplanin]
fitness, main component drawn
Settings	first compound 0.375 µg/mL	first compound 0.75 µg/mL	first compound 1.5 µg/mL
S. aureus DSM 20231, partner 0.1562 µg/mL	≥ 1	≥ 1	0.989
S. aureus DSM 20231, partner 0.3125 µg/mL	≥ 1	≥ 1	≥ 1
S. aureus DSM 20231, partner 0.625 µg/mL	≥ 1	≥ 1	≥ 1
S. aureus Newman, partner 0.1562 µg/mL	≥ 1	≥ 1	0.975
S. aureus Newman, partner 0.3125 µg/mL	≥ 1	≥ 1	≥ 1
S. aureus Newman, partner 0.625 µg/mL	0.865	0.779	0.77

fitness, S. aureus Newman, one replicate, main component drawn
Settings	first compound 0.375 µg/mL	first compound 0.75 µg/mL	first compound 1.5 µg/mL
partner 0.62 µg/mL	0.831	0.783	0.894
partner 1.24 µg/mL	0.745	0.694	0.743
partner 2.48 µg/mL	0.368	0.341	0.377

N[C@@H]1CONC1=O [Cycloserine D] + CO[C@@]12[C@H](COC(N)=O)C3=C(C(=O)C(C)=C(N)C3=O)N1C[C@@H]1N[C@@H]12 [Mitomycin C]
fitness
Settings	first compound 0.375 µg/mL	first compound 0.75 µg/mL	first compound 1.5 µg/mL
S. aureus DSM 20231, partner 0.0156 µg/mL	0.746	0.739	0.71
S. aureus DSM 20231, partner 0.0312 µg/mL	0.716	0.716	0.711
S. aureus DSM 20231, partner 0.0625 µg/mL	0.528	0.542	0.513
S. aureus Newman, partner 0.0156 µg/mL	0.682	0.71	0.732
S. aureus Newman, partner 0.0312 µg/mL	0.656	0.651	0.693
S. aureus Newman, partner 0.0625 µg/mL	0.567	0.5	0.555

CCC[C@@H]1C[C@@H](C(=O)N[C@@H]([C@H]2O[C@H](SC)[C@H](O)[C@@H](O)[C@H]2O)[C@H](C)Cl)N(C)C1 [Clindamycin] + CO/N=C(\C(=O)N[C@@H]1C(=O)N2C(C(=O)O)=C(COC(N)=O)CS[C@H]12)c1ccco1 [Cefuroxime]
one replicate
Settings	fitness
B. subtilis 168, first compound 0.0039 µg/mL, partner 0.195 µg/mL	0.442
B. subtilis 168, first compound 0.0039 µg/mL, partner 0.39 µg/mL	0.397
B. subtilis 168, first compound 0.0039 µg/mL, partner 0.78 µg/mL	0.389
B. subtilis 168, first compound 0.0078 µg/mL, partner 0.195 µg/mL	0.438
B. subtilis 168, first compound 0.0078 µg/mL, partner 0.39 µg/mL	0.367
B. subtilis 168, first compound 0.0078 µg/mL, partner 0.78 µg/mL	0.392
B. subtilis 168, first compound 0.0156 µg/mL, partner 0.195 µg/mL	0.366
B. subtilis 168, first compound 0.0156 µg/mL, partner 0.39 µg/mL	0.326
B. subtilis 168, first compound 0.0156 µg/mL, partner 0.78 µg/mL	0.28
B. subtilis 168, first compound 0.0625 µg/mL, partner 1.562 µg/mL	0.135
B. subtilis 168, first compound 0.0625 µg/mL, partner 3.125 µg/mL	0.0691
B. subtilis 168, first compound 0.0625 µg/mL, partner 6.25 µg/mL	0.0572
B. subtilis 168, first compound 0.125 µg/mL, partner 1.562 µg/mL	0.0526
B. subtilis 168, first compound 0.125 µg/mL, partner 3.125 µg/mL	0.031
B. subtilis 168, first compound 0.125 µg/mL, partner 6.25 µg/mL	0.0267
B. subtilis 168, first compound 0.25 µg/mL, partner 1.562 µg/mL	0.0448
B. subtilis 168, first compound 0.25 µg/mL, partner 3.125 µg/mL	0.028
B. subtilis 168, first compound 0.25 µg/mL, partner 6.25 µg/mL	0.0276
S. aureus Newman, first compound 0.0312 µg/mL, partner 0.04875 µg/mL	0.764
S. aureus Newman, first compound 0.0312 µg/mL, partner 0.0975 µg/mL	0.681
S. aureus Newman, first compound 0.0312 µg/mL, partner 0.195 µg/mL	0.718
S. aureus Newman, first compound 0.0625 µg/mL, partner 0.04875 µg/mL	0.358
S. aureus Newman, first compound 0.0625 µg/mL, partner 0.0975 µg/mL	0.304
S. aureus Newman, first compound 0.0625 µg/mL, partner 0.195 µg/mL	0.21
S. aureus Newman, first compound 0.125 µg/mL, partner 0.04875 µg/mL	0.111
S. aureus Newman, first compound 0.125 µg/mL, partner 0.0975 µg/mL	0.0924
S. aureus Newman, first compound 0.125 µg/mL, partner 0.195 µg/mL	0.078

fitness, B. subtilis 168
Settings	first compound 0.0625 µg/mL	first compound 0.125 µg/mL	first compound 0.25 µg/mL
partner 0.04875 µg/mL	0.396	0.401	0.218
partner 0.0975 µg/mL	0.306	0.241	0.195
partner 0.195 µg/mL	0.39	0.217	0.217
